Results taken from patent US3980646A, “3-Methylpyrazole-5-carboxylates and medicaments containing these compounds” (Wulfing; Johann A., priority 1974, dated 1976).
Several values for one entry are separate records, joined by “and”; a condition that tells them apart may be missing. Equal values may be shown once. Entries after “also recorded” stand apart in the source; their conditions may differ.

Assays:
serum triglycerides = assay: influence on the serum triglycerides of repeated application; type: in vivo, rats male (Wistar); details: 100 mg/kg x/day p.o.; for serum triglycerides, mean (x10): control 133.6; for serum triglycerides: individual animals, starve for 5 hours, 100 mg/kg
Method: Influence on the serum triglycerides of repeated application of
(§1) 100 mg/kg x/day p.o. rats male, starve for 5 hours, ether narcosis, heart
(§2) last application 1 hour before killing (cf. FIG. 3)

serum fatty acids (FFS) [1] = assay: influence on the serum fatty acids (FFS) of normal animals; type: in vivo, Female rats (Wistar); details: normal female rats, 100 mg/kg oral, 1 hour after application
Method: (§3) Investigations on a total of 260 Wistarrats were conducted with 7-[3-(N-methyl-N-2-hydroxyethyl)-amino-2-hydroxypropyl]-1,3-dimethylxanthine-3-methylpyrazole-5-carboxylate.
Examination of the influence of 7-[3-(N-methyl-N-2-hydroxy-
ethyl)-amino-2-hydroxypropyl]-1,3-dimethylxanthine-3-methyl-
pyrazole-5-carboxylate on the serum fatty acids (FFS) of
Female rats, starve for 5 hours
Dose: 100 mg/kg body weight, oral by esophagus probe,
Blood removal: 1 hour after application

free fatty acids (FFS) = assay: influence on the free fatty acids (FFS) after repeated application once daily for 4 days; type: in vivo, Rats male (Wistar); details: for free fatty acids (FFS): individual animals; for free fatty acids (FFS) / free fatty acids (FFS), mean (x10): 4 × appl. 50 mg/kg p.o.; for free fatty acids (FFS), mean (x10): control 1.27, p<0.001
Method: Rats male, repeated application once daily for 4 days,
on the 4th day groups of 10 animals were killed at
intervals of 30 minutes, 1 hour and 2 hours after the
last application by ether narcosis and heart puncture.
10 controls were given esophagus probe, animals starved
for 17 hours before killing (cf. FIG. 4)
7-[3-(N-methyl-2-hydroxyethyl)-amino-2-
hydroxypropyl]-1,3-dimethylxanthine-3-
methylpyrazole-5-carboxylate 50 mg/kg peroral
3-methylpyrazole-5-carboxylic acid (3-MPC)
eq./kg 15 mg/kg peroral

serum fatty acids (FFS) [2] = assay: influence on the serum fatty acids (FFS) of hyperlipacidaemic rats, alcohol lipolysis; type: in vivo, rats (Wistar); details: alcohol 2 g/kg i.v., 100 mg/kg oral 3 hours before blood removal
Method: as §3
rats, starve for 5 hours,
Dose: alcohol 2g/kg body weight in 20% solution i.v.,
Dose: active principle according to the invention
100 mg/kg body weight, oral by esophagus probe
3 hours before blood removal

serum cholesterol = assay: influence on the serum cholesterol of repeated application; type: in vivo, rats male (Wistar); details: for serum cholesterol: individual animals, starve for 5 hours, 100 mg/kg; for serum cholesterol / serum cholesterol, mean (x10): 100 mg/kg x/day p.o.; for serum cholesterol, mean (x10): control 71.28
Method: Influence on the serum cholesterol of repeated application of
as §1, §2

mice = assay: LD50 in mice; type: in vivo
cholesterol = assay: assaying for cholesterol in starved rats; type: in vivo, Male Rats (Wistar)
Method: Assaying for cholesterol
Male Rats, starve for 18 hours, ether narcosis, heart puncture
100 mg/kg of 7-[3-(N-methyl-N-

## CN(CCO)CC(O)Cn1cnc2c1c(=O)n(C)c(=O)n2C.Cc1cc(C(=O)O)[nH]n1 (stereo not drawn) [7-[3-(N-methyl-N-2-hydroxyethyl)-amino-2-hydroxypropyl]-1,3-dimethylxanthine-3-methylpyrazole-5-carboxylate]
Serum triglycerides; 2nd day
  serum triglycerides, mean (x10): 74.8 mg%
Serum triglycerides; 3rd day
  serum triglycerides: 60.1 mg% and 63.0 mg% and 90.2 mg% and 108.8 mg% and 50.1 mg% and 97.4 mg% and 80.2 mg% and 105.9 mg% and 58.7 mg%
  serum triglycerides, mean (x10): 77.4 mg%
Serum triglycerides; 4th day
  serum triglycerides: 30.1 mg% and 73.0 mg% and 67.0 mg% and 64.4 mg% and 60.1 mg% and 44.4 mg% and 58.7 mg% and 101.7 mg% and 67.3 mg%
  serum triglycerides, mean (x10): 61.1 mg%
Serum fatty acids (FFS) [1]; individual animals, starve for 5 hours, 100 mg/kg
  FFS: 0.51 μval/ml and 0.58 μval/ml and 0.52 μval/ml and 0.56 μval/ml and 0.57 μval/ml and 0.48 μval/ml and 0.54 μval/ml
Serum fatty acids (FFS) [1]; mean of test series, control φ 0.60
  FFS, mean (φ): 0.53 μval/ml
Free fatty acids (FFS); 30' after last application
  free fatty acids (FFS): 0.72 μval/ml plasma and 0.94 μval/ml plasma and 0.69 μval/ml plasma and 0.83 μval/ml plasma and 1.36 μval/ml plasma and 0.89 μval/ml plasma and 0.66 μval/ml plasma and 0.67 μval/ml plasma and 0.86 μval/ml plasma and 1.07 μval/ml plasma
  free fatty acids (FFS), mean (x10): 0.87 μval/ml plasma
Free fatty acids (FFS); 1 h after last appl.
  free fatty acids (FFS): 0.75 μval/ml plasma and 0.42 μval/ml plasma and 0.45 μval/ml plasma and 0.56 μval/ml plasma and 0.67 μval/ml plasma and 0.54 μval/ml plasma and 0.86 μval/ml plasma and 0.63 μval/ml plasma and 0.98 μval/ml plasma and 0.89 μval/ml plasma
  free fatty acids (FFS), mean (x10): 0.68 μval/ml plasma
Free fatty acids (FFS); 2 h after last appl.
  free fatty acids (FFS): 0.79 μval/ml plasma and 0.58 μval/ml plasma and 0.94 μval/ml plasma and 0.80 μval/ml plasma and 1.10 μval/ml plasma and 1.07 μval/ml plasma and 0.84 μval/ml plasma and 0.90 μval/ml plasma and 0.97 μval/ml plasma and 0.83 μval/ml plasma
  free fatty acids (FFS), mean (x10): 0.88 μval/ml plasma
Free fatty acids (FFS); repeated application, result in words
  weakening of effect on free fatty acid content by pretreatment: does not have this effect
Serum fatty acids (FFS) [2]; individual animals, 100 mg/kg
  FFS: 0.45 μval/ml and 0.58 μval/ml and 0.59 μval/ml and 0.60 μval/ml and 0.52 μval/ml and 0.56 μval/ml and 0.43 μval/ml and 0.66 μval/ml and 0.67 μval/ml and 0.53 μval/ml
Serum fatty acids (FFS) [2]; mean, control φ 0.64, alcohol series φ 0.79, p<0.001
  FFS, mean (φ): 0.56 μval/ml
Serum cholesterol; 100 mg/kg over 4 days, result in words
  effect on the serum cholesterol on repeated application: uniform and, in some cases, even increased effect; also recorded: still significantly reduced
Serum cholesterol; 1st day
  serum cholesterol: 71.70 mg % and 49.06 mg % and 51.89 mg % and 67.92 mg % and 68.87 mg % and 52.83 mg % and 50.94 mg %
  serum cholesterol, mean (x10): 58.68 mg %
Serum cholesterol; 2nd day
  serum cholesterol: 37.4 mg % and 54.2 mg % and 55.2 mg % and 69.9 mg % and 65.0 mg % and 69.1 mg % and 39.4 mg % and 47.3 mg % and 49.3 mg % and 51.2 mg %
  serum cholesterol, mean (x10): 53.8 mg %
Serum cholesterol; 3rd day
  serum cholesterol: 52.36 mg % and 71.24 mg % and 67.81 mg % and 50.64 mg % and 57.51 mg % and 64.38 mg % and 62.66 mg % and 68.67 mg % and 60.94 mg %
  serum cholesterol, mean (x10): 62.75 mg %
Serum cholesterol; 4th day
  serum cholesterol: 42.98 mg % and 37.19 mg % and 52.07 mg % and 64.46 mg % and 80.99 mg % and 47.11 mg % and 65.29 mg % and 58.68 mg % and 50.41 mg % and 43.80 mg %
  serum cholesterol, mean (x10): 54.30 mg %
mice; i.v.
  LD50: 540 mg/kg
mice; per oral
  LD50: more than 1000 mg/kg
cholesterol; 100 mg/kg perorally, result in words
  cholesterol level of starved rats: significantly reduces the cholesterol level
cholesterol; individual animals, starve for 18 hours, 100 mg/kg per os 1 hour before killing, 100 mg/kg
  Cholesterol: 78.45 mg % and 50.86 mg % and 57.76 mg % and 47.71 mg % and 62.07 mg % and 48.28 mg % and 65.52 mg % and 56.03 mg % and 38.79 mg %
cholesterol; mean of 10, starve for 18 hours, 100 mg/kg per os 1 hour before killing, control 75.69, p<0.001
  Cholesterol, mean (x10): 57.07 mg %
